Laboratory results as given in patent US11767313B2, “Compounds as nuclear transport modulators and uses thereof” (XWPHARMA LTD., priority 2018, dated 2023).
Read-outs that look alike come from different tables or passages of the source.

Assays:
[1] = system: HCN2; test: CellTiter-Glo cell proliferation assay, HCN2 (normal brain); format: cell-based
Protocol: (§1) CellTiter-Glo® Luminescent Cell Viability assay (with Promega CellTiter 96® Luminescent CellTiter-Glo® kit) was used to study the proliferation inhibition by test compounds. Compounds were resuspended in DMSO to make a 25 mM stock suspension. Cells of cancer cell lines or normal tissues were seeded in 96-well plates at 1,500 to 5,000 cells/well overnight. Compounds were 2- or 3-fold diluted serially to obtain 10 concentrations. Then, the drugs were added to the cell wells by Bravo (Agilent) and incubated for 72 hours. The cells were lysed by adding CellTiter-Glo® Reagent (per manufacturer's instructions) and subsequently, the luminescence was read using EnVision® (PerkinElmer).
(§2) The percent of growth was calculated as follows. DMSO-treated cells were employed as vehicle control (High control, HC) and culture medium alone was employed as background (Low control, EC). % growth=100×(Lum sample−Lum EC)/(Lum HC−Lum EC). The ICso was calculated by concentration-response curve fitting using Graphpad Prism.
(§3) Hematological cancer cell lines tested included OCI-AML3, MV-4-11, KG-1, Kasumi-1, K562, THP-1; solid cancer cell lines tested included U87MG, U251, T98G, LN229, A172, H460, H2009, A549; normal cell lines tested included HCN2 and 3T3-L1. […] However, they were not toxic to in vitro cultured normal cells.

[2] = Pharmacokinetic profile summary; format: in vivo, mice or rats; conditions: for bioavailability / Kp at 1 h: oral; for bioavailability / half-life: mice or rats; for AUC / Cmax: po; for Kp at 1 h: brain/plasma, read-out: B/P ratio (Cmax time) 10 mpk
Protocol: Blood was collected from mice (n=3, or 5) to contribute to the total of 10 time points (pre-dose, 5 min, 15 min, 30 min, 1 hour, 2 hours, 4 hours, 8 hours, 12 hours and 24 hours). At the designated time points, animals were anaesthetized under isoflurane, and approximately 110 μL of blood per time point was collected via retro-orbital puncture into pre-cooled K2EDTA tubes. Blood samples were put on wet ice and centrifuged (2000 g, 5 min at 4° C.) to obtain plasma within 30 minutes of sample collection. All samples were stored frozen at approximately −80° C. until analysis. Prior to analysis, samples were mixed with internal standard in acetonitrile, vortexed, centrifuged, and supernatant was injected for analysis. Concentration of compounds in plasma was determined using LC-MS-MS instrumentation (API 4000, Triple Quadrupole LC/MS/MS Mass Spectrometer). AUC values were calculated using Phoenix Win Nonlin 6.3 software package, PO-Noncompartmental model 200 (extravascular input).
Following collection, brain tissue was rinsed with cold saline, dried on filter paper, weighed and snap-frozen by placing on dry ice. All samples were stored frozen at approximately −80° C. until analysis. At the time of analysis, brain tissue was homogenized (homogenizing solution PBS, pH 7.4), mixed with internal standard in acetonitrile, vortexed, centrifuged, and supernatant was injected for analysis. Concentration of compounds in plasma was determined using LC-MS-MS instrumentation (API 4000, Triple Quadrupole LC/MS/MS Mass Spectrometer). Plasma samples were treated with the identical method (except homogenization step) and the concentration of compound in each matrix was calculated based on generated standard curves.
The pharmacokinetic profile of test compounds in mice or rats was determined from several test compounds was determined using the methods described in Example 22.

[3] = system: T98G; test: CellTiter-Glo cell proliferation assay, T98G; format: cell-based; conditions: Homo sapiens, T98G
Protocol: as §1, §2, §3

[4] = target: XPO1 (Homo sapiens, UniProt O14980); test: REV-GFP translocation assay in U2OS cells; format: cell-based; parameters: endogenous in cells; host or cells: U2OS cells stably expressing REV-GFP (clones from HD Biosciences); conditions: for IC50: Table 10
Chain of XPO1 (O14980 whole entry): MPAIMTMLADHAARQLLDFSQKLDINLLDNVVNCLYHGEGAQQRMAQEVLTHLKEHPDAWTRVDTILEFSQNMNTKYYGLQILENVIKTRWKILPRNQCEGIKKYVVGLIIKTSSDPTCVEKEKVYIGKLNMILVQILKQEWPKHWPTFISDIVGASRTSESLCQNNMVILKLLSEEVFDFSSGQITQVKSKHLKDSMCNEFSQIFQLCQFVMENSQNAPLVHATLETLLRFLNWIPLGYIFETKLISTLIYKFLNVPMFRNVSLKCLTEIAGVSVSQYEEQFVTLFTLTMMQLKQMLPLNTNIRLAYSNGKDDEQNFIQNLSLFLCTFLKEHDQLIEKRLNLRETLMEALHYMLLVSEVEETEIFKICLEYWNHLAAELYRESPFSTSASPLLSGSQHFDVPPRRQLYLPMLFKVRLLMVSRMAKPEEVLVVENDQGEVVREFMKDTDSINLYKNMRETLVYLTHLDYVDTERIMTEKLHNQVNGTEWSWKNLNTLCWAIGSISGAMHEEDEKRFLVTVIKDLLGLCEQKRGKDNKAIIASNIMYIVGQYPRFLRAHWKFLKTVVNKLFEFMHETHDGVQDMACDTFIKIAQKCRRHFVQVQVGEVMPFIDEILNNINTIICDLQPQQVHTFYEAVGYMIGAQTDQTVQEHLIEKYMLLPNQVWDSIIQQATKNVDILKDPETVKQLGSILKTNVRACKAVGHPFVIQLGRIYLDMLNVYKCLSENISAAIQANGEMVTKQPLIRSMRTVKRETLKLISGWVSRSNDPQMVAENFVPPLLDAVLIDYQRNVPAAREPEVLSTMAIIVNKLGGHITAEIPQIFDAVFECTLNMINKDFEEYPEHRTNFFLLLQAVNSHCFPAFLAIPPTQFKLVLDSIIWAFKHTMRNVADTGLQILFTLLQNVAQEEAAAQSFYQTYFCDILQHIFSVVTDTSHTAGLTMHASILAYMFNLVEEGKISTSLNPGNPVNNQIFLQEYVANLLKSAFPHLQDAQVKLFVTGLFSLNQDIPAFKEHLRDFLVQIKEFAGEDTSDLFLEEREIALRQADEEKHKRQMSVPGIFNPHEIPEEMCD
Procedure, shortened: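 High-content imaging (Hoechst and GFP channels, 20× objective) quantified REV-GFP nuclear translocation in U2OS cells after 1 h compound exposure at 37° C, maximum 10 μM. Cells were formaldehyde-fixed before staining. Results expressed as % effect scaled between vehicle control and 50 nM LMB.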

[5] = system: LN-229; test: CellTiter-Glo cell proliferation assay, LN-229; format: cell-based; conditions: Homo sapiens, LN-229
Protocol: as §1, §2, §3

[6] = system: U251; test: CellTiter-Glo cell proliferation assay, U251; format: cell-based; conditions: Homo sapiens, U-251
Protocol: as §1, §2, §3

[7] = system: U87MG; test: CellTiter-Glo cell proliferation assay, U87MG; format: cell-based, human; conditions: for IC50: Homo sapiens, U-87 MG
Procedure, shortened: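 Cells were seeded at 1,500 to 5,000 per well overnight, then exposed for 72 hours to 10 concentrations of compound from 2- or 3-fold serial dilutions. Viability was read as CellTiter-Glo luminescence, and % growth was normalized to DMSO-treated cells and medium-only background. IC50 came from concentration-response fitting.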

[8] = system: A549; test: CellTiter-Glo cell proliferation assay, A549; format: cell-based; conditions: Homo sapiens, 72 hours, Table 1, read-out: Growth inhibition (IC50)
Protocol: as §1, §2, §3

[9] = 72 h, HCN2 normal cell line, 72 hours, Table 1, read-out: Growth inhibition (IC50)
[10] = 10 mg/kg, plasma, 10 mpk, read-out: Cmax (ng/ml) plasma/10 mpk
[11] = Table 11, read-out: Absolute IC50 (μM) T98G
[12] = 72 hours, Table 1, read-out: Growth inhibition (IC50)
[13] = REV-EGFP U2OS cells, 1 h, Table 2, read-out: Rev-GFP/EC50
[14] = first (or only) value of the cell
[15] = Table 13, read-out: Rev-GFP assay/μM
[16] = Table 11, read-out: Absolute IC50 (μM) LN-229
[17] = Table 11, read-out: Absolute IC50 (μM) U251
[18] = 72 h, U87MG, 72 hours, Table 1, read-out: Growth inhibition (IC50)
[19] = Table 9, first value column, read-out: U87MG IC50
[20] = Table 9, second value column, read-out: U87MG IC50

| SMILES | IC50 [1, 9] | IC50 ([1]; Table 9, read-out: HCN2 IC50) | bioavailability ([2]; plasma) | AUC ([2]; plasma, 10 mg/kg, 10 mpk) | half-life ([2]; plasma) | Cmax [2, 10] | Kp at 1 h ([2]; rat, 10 mg/kg) | IC50 [3, 11] | EC50 [4, 13] | IC50 [4, 14] | IC50 ([4]; second value of the cell) | EC50 [4, 15] | IC50 [5, 16] | IC50 [6, 17] | IC50 [7, 18] | IC50 [7, 19] | IC50 [7, 20] | further results |
| --- | --- | --- | --- | --- | --- | --- | --- | --- | --- | --- | --- | --- | --- | --- | --- | --- | --- | --- |
| CC(C)(C)C(=O)NNC(=O)/C=C\n1cnc(-c2cc(C(F)(F)F)cc(S(F)(F)(F)(F)F)c2)n1 [Compound III, (Z)-3-(3-(3-(Pentafluorosulfanyl)-5-(trifluoromethyl)phenyl)-1H-1,2,4-triazol-1-yl)-N′-pivaloylacrylohydrazide] | > 50000 nM | > 50000 nM | 82% | 13900 ng·h/mL | 5.2 h | 1600 ng/mL | 0.95 | 6.2 µM | 0.211 µM | 298 nM | 125 nM | 0.21 µM | 1.8 µM | 3.8 µM | 1740 nM | 1120 nM | 2360 nM | Cmax ([2]; 3 mg/kg, 3 mpk, first number of Plasma/brain pair, read-out: Cmax/(ng/mL) Plasma): 1250 ng/mL; Cmax ([2]; 3 mg/kg, 3 mpk, second number of Plasma/brain pair, read-out: Cmax/(ng/mL) brain): 1190 ng/mL; IC50 [3, 12]: 6.25 µM; cell viability in REV-GFP assay ([4]; 1 h, all concentrations tested): no decrease in cell viability; EC90 ([4]; U2OS, concentration stated as EC90 in washout study, read-out: EC90 (REV-EGFP translocation)): 400 nM; EC50 ([4]; concentration stated as EC50 in washout study, read-out: EC50 (REV-EGFP translocation)): 0.12 µM; IC50 [5, 12]: 1.8 µM; IC50 ([6]; U251, 72 hours, Table 1, read-out: Growth inhibition (IC50)): 3.77 µM; IC50 ([7]; U87MG, Table 12, read-out: Relative IC50): 200 nM; Max % Inhibition ([7]; U87MG, Table 12): 46.3%; Bottom ([7]; U87MG, curve fit, Table 12): −4.2; Hill Slope ([7]; U87MG, curve fit, Table 12): 3.2; Top ([7]; U87MG, curve fit, Table 12): 40.2 |
| O=C(/C=C\n1cnc(-c2cc(C(F)(F)F)cc(S(F)(F)(F)(F)F)c2)n1)NNc1cnccn1 [Compound I, (Z)-3-(3-(3-(pentafluorosulfanyl)-5-(trifluoromethyl)phenyl)-1H-1,2,4-triazol-1-yl)-N′-(pyrazin-2-yl)acrylohydrazide] | 25800 nM | 25800 nM | 98% | 10000 ng·h/mL | 4.7 h | 2550 ng/mL | 0.71 | 1.7 µM | 0.012 µM | 16.3 nM | 7.7 nM | 0.012 µM | 0.6 µM | 1.2 µM | 592 nM | 384 nM | 798 nM | HCN2 Max % inh ([1]; Table 8): 22%; IC50 ([1]; Table 8, read-out: HCN2 IC50): > 50000 nM; Cmax ([2]; rat, 10 mg/kg, 10 mpk, first number of Plasma/brain pair, read-out: Cmax/(ng/mL) Plasma): 1890 ng/mL; Cmax ([2]; rat, 10 mg/kg, 10 mpk, second number of Plasma/brain pair, read-out: Cmax/(ng/mL) brain): 1300 ng/mL; IC50 [8]: 1490 nM; IC50 ([7]; Table 6, read-out: U87MG IC50): 226 nM |
